Measurements: US7964613B2 (Asahi Kasei Pharma Corporation, priority 2007, dated 2011)

Legend:
[1] = test system: intraocular pressure; assay: Rabbit intraocular pressure reduction enhancing action, Test Example 7-2 (combination use with timolol maleate); format: in vivo, Japanese white rabbit; settings: Table 6; 19-1 compound 0.01 weight % aqueous solution 50 μL, Timoptol 50 μL; difference relative to control group at 1, 2, 4 hours; 12 rabbits
Method: As a test compound, the 19-1 compound was dissolved in physiological saline, and the solution was neutralized by addition of sodium hydroxide (pH 7.0 to 8.0) to prepare a 0.01 weight % aqueous solution (19-1 compound aqueous solution). As a drug for combination use, timolol maleate (trade name: Timoptol, Santen Pharmaceutical) was used as an adrenergic receptor β blocker, as the marketed formulation as it was.
A Japanese white rabbit having a body weight of about 2 kg was placed in a positioner and naturalized for one week before the experiment. An opthalmologic local anesthesant (Benoxil) was administered to both eyes, and then intraocular pressure before instillation was measured by using a tonometer (Classic 30, Solan). […] The intraocular pressure thereafter was measured for each group 1, 2 and 4 hours after the second administration of the test compound, and the difference of the measured values at each measurement time for the each group and the control group was considered an intraocular pressure reduction value of each group. The largest difference of the intraocular pressure values relative to the control group among those of the measured values of the measurement times was considered the maximum intraocular pressure reduction value (max ? IOP) of each drug group.

[2] = test system: intraocular pressure; assay: Intraocular pressure reduction enhancing action in monkey; format: in vivo; settings: cynomolgus monkey, 0.01 weight % aqueous solution, 30 μL
Method: Moreover, as for the test compound used for combination use, similar effect can be obtained also with the compounds of the present invention represented with the example numbers mentioned in Test Example 3. The test is performed by using cynomolgus monkeys sufficiently naturalized for the operation of fixation on a monkey chair and ophathalmotonometry.
As the test compound, the 19-1 compound is dissolved in physiological saline, and the solution is neutralized by addition of sodium hydroxide (pH 7.0 to 8.0) to prepare a 0.01 weight % aqueous solution (19-1 compound aqueous solution). As a drug for combination use, latanoprost (trade name: Xalatan, Pfizer) is used as the marketed formulation per se. The test aqueous solution or the drug for combination use is instilled to the left eye, and the right eye is not treated (control eye). […] After initial intraocular pressure values of the monkeys are measured for each group, 30 μL of physiological saline is instilled to the control group, single drug group 1, and single drug group 2, and latanoprost is instilled in the same volume to the combination use group. […] Then, the intraocular pressure is measured over time for each group.

[3] = test system: hippocampus nerve cells; assay: Effect of neurite outgrowth; format: cell-based, Wistar rat; settings: 22 hours
Method: A Lab-Tek culture slide (4-well) was coated with poly-L-lysine (Sigma). A pregnant Wistar rat was used, and anesthetized with ether on day 18 of gestation. Then, a rat fetus was taken out from the rat, and the hippocampus was extracted from the brain of the fetus, put into a phosphate buffered physiological saline containing 0.1% trypsin, and incubated at 37° C. for 10 minutes. The hippocampus precipitated by centrifugation was ground in a medium containing 10% heat-inactivated fetal bovine serum by using a pipet to obtain hippocampus nerve cells. The cells were finally suspended in a medium containing B27 Supplement (Gibco), and plated on the preliminarily coated Lab-Tek culture slide at a density of 50,000 cells/well. After adhesion of the cells (about 2 hours), a drug was added at a desired concentration, and the slide was further incubated at 37° C. for 22 hours under 5% CO2. […]
After the incubation, the cells were fixed with 4% paraformaldehyde, and immunostained by using rabbit anti-beta-III-tubulin antibodies (Covance). Images of the nerve cells were captured into a computer by using a digital camera (DP-70, Olympus) installed in a fluorescence microscope (Olympus). Images of 20 to 30 of arbitrary sites on the slide were captured, and lengths of the axial fivers of 200 to 300 nerve cells were measured by using NIH imaging software for each drug. […]

N[C@H]1CCN(S(=O)(=O)c2cccc3cncc(Cl)c23)C1 [Example 19-1, (S)-3-Amino-1-(4-chloro-5-isoquinolinesulfonyl)pyrrolidine]
Max IOP (maximum intraocular pressure reduction value) [1]: 4.1 mmHg
intraocular pressure reducing action in single drug group 1 [2]: exceeding that of the control group

CN[C@H]1CCN(S(=O)(=O)c2cccc3c(O)ncc(Cl)c23)C1 [Example 36-1, (S)-1-(1-Hydroxy-4-chloro-5-isoquinolinesulfonyl)-3-(methylamino)pyrrolidine]
neurites extended compared with non-treated nerve cells ([3]; concentration of 1 μM): 28%
neurites extended compared with non-treated nerve cells ([3]; concentration of 10 μM): 43%
